Test results from ChEMBL document CHEMBL1159114, “Novel bis-arylsulfonamides and aryl sulfonimides as inactivators of plasminogen activator inhibitor-1 (PAI-1)” (Bioorg Med Chem Lett, 2010).

Assays:
[1] = target: T1, Plasminogen activator inhibitor 1 (Homo sapiens, UniProt P05121); experiment: Inhibition of human recombinant PAI1 assessed as rate of AMC release after 30 mins
Antithrombin-III = Antithrombin-III (Homo sapiens, UniProt P01008); experiment: Inhibition of antithrombin-3 assessed as residual alpha-thrombin activity
Antithrombin-III, sequence (P01008 whole entry): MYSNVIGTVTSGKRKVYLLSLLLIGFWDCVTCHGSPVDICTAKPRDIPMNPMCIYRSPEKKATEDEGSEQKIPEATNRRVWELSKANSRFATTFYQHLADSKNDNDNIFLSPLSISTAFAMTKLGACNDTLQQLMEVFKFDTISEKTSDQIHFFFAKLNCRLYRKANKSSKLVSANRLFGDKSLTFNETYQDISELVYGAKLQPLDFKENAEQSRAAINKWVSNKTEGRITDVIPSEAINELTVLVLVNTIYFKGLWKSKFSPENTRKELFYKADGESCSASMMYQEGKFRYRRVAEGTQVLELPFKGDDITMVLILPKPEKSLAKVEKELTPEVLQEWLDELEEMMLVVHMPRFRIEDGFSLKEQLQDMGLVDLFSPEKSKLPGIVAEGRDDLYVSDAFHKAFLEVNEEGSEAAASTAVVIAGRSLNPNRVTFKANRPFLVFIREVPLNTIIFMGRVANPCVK

[2] = target: T1, Plasminogen activator inhibitor 1; experiment: Inhibition of human recombinant PAI1 assessed as rate of AMC release at 300 uM after 30 mins

T1 sequence (P05121 whole entry): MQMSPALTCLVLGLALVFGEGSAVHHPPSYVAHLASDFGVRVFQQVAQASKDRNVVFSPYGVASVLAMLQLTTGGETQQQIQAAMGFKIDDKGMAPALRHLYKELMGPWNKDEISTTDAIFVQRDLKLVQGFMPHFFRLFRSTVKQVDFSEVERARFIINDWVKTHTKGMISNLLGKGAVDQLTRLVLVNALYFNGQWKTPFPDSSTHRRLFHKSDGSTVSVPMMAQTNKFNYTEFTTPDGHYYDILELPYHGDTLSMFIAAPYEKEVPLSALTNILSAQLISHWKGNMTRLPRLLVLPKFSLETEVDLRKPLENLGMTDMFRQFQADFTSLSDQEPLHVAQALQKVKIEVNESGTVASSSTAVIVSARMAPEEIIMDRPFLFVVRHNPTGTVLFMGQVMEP

Compound | IC50 [1] | IC50 (Antithrombin-III) | inhibition [2]
CCN(CCN(CC)S(=O)(=O)c1ccc(O)c(O)c1)S(=O)(=O)c1ccc(O)c(O)c1 | 9.32 µM | > 1000 µM | –
O=S(=O)(c1ccc(O)c(O)c1)N(C1CCCCC1)S(=O)(=O)c1ccc(O)c(O)c1 | 0.594 µM | > 300 µM | –
O=S(=O)(NCCNS(=O)(=O)c1ccc(O)c(O)c1)c1ccc(O)c(O)c1 | 518 µM | > 3000 µM | –
CCN(CCN(CC)S(=O)(=O)c1cc(F)c(O)c(F)c1)S(=O)(=O)c1cc(F)c(O)c(F)c1 | 128 µM | > 3000 µM | –
CCN(CCN(CC)S(=O)(=O)c1ccccc1)S(=O)(=O)c1ccccc1 | > 300 µM | > 300 µM | –
CCN(CCN(CC)S(=O)(=O)c1ccc(OC)c(OC)c1)S(=O)(=O)c1ccc(OC)c(OC)c1 | > 300 µM | > 300 µM | –
CCCN(S(=O)(=O)c1ccc(O)c(O)c1)S(=O)(=O)c1ccc(O)c(O)c1 | 2.67 µM | > 1000 µM | –
CCN(CCN(CC)S(=O)(=O)c1ccc(O)cc1)S(=O)(=O)c1ccc(O)cc1 | > 300 µM | > 300 µM | –
O=S(=O)(NCCCCNS(=O)(=O)c1ccc(O)c(O)c1)c1ccc(O)c(O)c1 | > 3000 µM | > 3000 µM | –
O=S(=O)(c1ccc(O)c(O)c1)N1CCN(S(=O)(=O)c2ccc(O)c(O)c2)CC1 | > 300 µM | > 300 µM | < 30%
CCCCCCN(S(=O)(=O)c1ccc(O)c(O)c1)S(=O)(=O)c1ccc(O)c(O)c1 | 0.284 µM | > 300 µM | –
CCN(CCN(CC)S(=O)(=O)c1cccc(O)c1)S(=O)(=O)c1cccc(O)c1 | 343 µM | > 1000 µM | –
CCN(CCN(CC)S(=O)(=O)c1cc(O)ccc1O)S(=O)(=O)c1cc(O)ccc1O | > 300 µM | > 300 µM | < 30%
O=S(=O)(NCCCCCCNS(=O)(=O)c1ccc(O)c(O)c1)c1ccc(O)c(O)c1 | 1380 µM | > 3000 µM | –
O=S(=O)(c1ccc(O)c(O)c1)N(Cc1ccccc1)S(=O)(=O)c1ccc(O)c(O)c1 | 4.82 µM | > 300 µM | –
